Data taken from ChEMBL document CHEMBL4699511, “Cedrol, a Sesquiterpene Alcohol, Enhances the Anticancer Efficacy of Temozolomide in Attenuating Drug Resistance via Regulation of the DNA Damage Response and MGMT Expression” (J Nat Prod, 2020).
One block for each compound: values may come before it. Active and inactive are the calls of the source. No cut-off for these calls is given here.

Tests used:
[1] = tested on: DBTRG-05MG; test: Synergistic cytotoxicity against human DBTRG-05MG cells assessed as combination index at 89.9 uM after 48 hrs in presence of 515.1 uM TMZ by MTT assay; type: functional
[2] = tested on: DBTRG-05MG; test: Induction of apoptosis in human DBTRG-05MG cells assessed as cleaved PARP expression at 112.4 uM after 48 hrs by Western blot analysis (reference value: 1); type: functional
[3] = tested on: DBTRG-05MG; test: Induction of apoptosis in human DBTRG-05MG cells assessed as phosphorylated PARP expression at 112.4 uM after 48 hrs by Western blot analysis (reference value: 1); type: functional
[4] = tested on: DBTRG-05MG; test: Induction of DNA damage in human DBTRG-05MG cells assessed as Chk1 phosphorylation at ser345 residues at 112.4 uM after 48 hrs in presence of TMZ by Western blot analysis (reference value: 1); type: functional
[5] = tested on: RG2; test: Induction of cell cycle arrest in rat RG2 cells assessed as CDK2 expression at 112.4uM after 48 hrs by Western blot analysis (reference value: 1); type: functional
[6] = tested on: DBTRG-05MG; test: Induction of cell cycle arrest in human DBTRG-05MG cells assessed as accumulation at G0/G1 phase at 112.4 uM after 24 hrs in presence of TMZ by propidium iodide staining based flow cytometric analysis (reference value: 47.16 +/- 1.55%); type: functional
[7] = tested on: DBTRG-05MG; test: Induction of cell cycle arrest in human DBTRG-05MG cells assessed as accumulation at G0/G1 phase at 112.4 uM after 12 hrs by propidium iodide staining based flow cytometric analysis (reference value: 47.16 +/- 1.55%); type: functional
[8] = tested on: RG2; test: Synergistic cytotoxicity against rat RG2 cells assessed as combination index at 112.4 uM after 48 hrs in presence of 103 uM TMZ by MTT assay; type: functional
[9] = Synergistic cytotoxicity against rat CTX TNA2 cells assessed as combination index at 89.9 uM after 48 hrs in presence of 309 uM TMZ by MTT assay; type: cell-based; conditions: ctx tna2, 48 h
[10] = tested on: RG2; test: Induction of apoptosis in rat RG2 cells assessed as cleaved caspace-3 expression at 112.4 uM after 48 hrs by Western blot analysis (reference value: 1); type: functional
[11] = Toxicity in BALB/c mouse xenografted with DBTRG-05MG cells assessed as reduction in body weight at 75 mg/kg, sc for every 2 days for 20 days; type: organism-based; conditions: in vivo, 480 h, time 20 day
[12] = biological target: Serine/threonine-protein kinase AKT (Homo sapiens) (UniProt P31751+Q9Y243+P31749); test: Inhibition of AKT phosphorylation at S473 residues in human DBTRG-05MG cells at 112.4uM after 48 hrs in presence of TMZ by Western blot analysis; type: cell-based
Chain of Serine/threonine-protein kinase AKT (Homo sapiens) (P31749 whole entry, looked up): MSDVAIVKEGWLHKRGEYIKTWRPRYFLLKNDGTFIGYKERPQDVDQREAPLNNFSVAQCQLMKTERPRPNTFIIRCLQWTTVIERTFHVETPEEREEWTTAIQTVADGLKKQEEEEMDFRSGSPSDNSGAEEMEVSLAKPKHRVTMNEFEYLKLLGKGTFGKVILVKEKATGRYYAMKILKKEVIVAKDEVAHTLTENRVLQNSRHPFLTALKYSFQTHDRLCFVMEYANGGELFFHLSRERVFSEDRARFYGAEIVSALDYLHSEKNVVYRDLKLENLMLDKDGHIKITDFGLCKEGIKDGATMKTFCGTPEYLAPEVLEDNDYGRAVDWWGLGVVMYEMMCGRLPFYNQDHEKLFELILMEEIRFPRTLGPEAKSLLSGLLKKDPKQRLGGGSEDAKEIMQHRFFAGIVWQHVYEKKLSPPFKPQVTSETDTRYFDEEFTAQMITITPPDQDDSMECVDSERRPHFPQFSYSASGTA
Chain of Serine/threonine-protein kinase AKT (Homo sapiens) (P31751 whole entry, looked up): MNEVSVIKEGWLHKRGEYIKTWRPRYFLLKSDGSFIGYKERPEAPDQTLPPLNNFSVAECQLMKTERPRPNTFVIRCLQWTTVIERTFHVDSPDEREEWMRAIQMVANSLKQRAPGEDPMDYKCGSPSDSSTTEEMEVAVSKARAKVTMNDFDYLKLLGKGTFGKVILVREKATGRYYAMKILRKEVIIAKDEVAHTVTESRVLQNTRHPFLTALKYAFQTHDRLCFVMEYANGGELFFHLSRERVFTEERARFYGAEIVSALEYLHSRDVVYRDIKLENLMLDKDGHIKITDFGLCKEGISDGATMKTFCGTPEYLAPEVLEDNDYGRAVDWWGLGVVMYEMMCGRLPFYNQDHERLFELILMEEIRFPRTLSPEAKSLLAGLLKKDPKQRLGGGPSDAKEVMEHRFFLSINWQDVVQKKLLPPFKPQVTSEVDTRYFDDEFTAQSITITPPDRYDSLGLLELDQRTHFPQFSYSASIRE
Chain of Serine/threonine-protein kinase AKT (Homo sapiens) (Q9Y243 whole entry, looked up): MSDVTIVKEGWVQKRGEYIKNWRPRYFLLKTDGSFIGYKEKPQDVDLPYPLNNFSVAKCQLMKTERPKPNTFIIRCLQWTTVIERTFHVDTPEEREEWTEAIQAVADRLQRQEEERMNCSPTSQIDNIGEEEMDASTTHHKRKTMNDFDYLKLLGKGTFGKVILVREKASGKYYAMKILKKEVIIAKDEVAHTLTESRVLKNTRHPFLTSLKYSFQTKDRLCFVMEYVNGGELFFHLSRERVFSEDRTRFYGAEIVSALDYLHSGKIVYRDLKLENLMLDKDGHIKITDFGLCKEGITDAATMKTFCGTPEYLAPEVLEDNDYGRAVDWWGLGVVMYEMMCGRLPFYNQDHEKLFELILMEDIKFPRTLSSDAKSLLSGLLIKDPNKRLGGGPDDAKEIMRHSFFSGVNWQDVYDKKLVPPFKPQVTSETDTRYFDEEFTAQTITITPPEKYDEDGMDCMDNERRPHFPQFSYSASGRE

[13] = tested on: DBTRG-05MG; test: Synergistic cytotoxicity against human DBTRG-05MG cells assessed as synergistic effect index at 89.9 uM after 48 hrs in presence of 515.1 uM TMZ by MTT assay; type: functional
[14] = Synergistic cytotoxicity against rat CTX TNA2 cells assessed as synergistic effect index at 89.9 uM after 48 hrs in presence of 515.1 uM TMZ by MTT assay; type: cell-based; conditions: ctx tna2, 48 h
[15] = Inhibition of TMZ-induced drug resistance in rat RG2 cells assessed as MDR1 expression at 112.4 uM after 48 hrs by Western blot analysis (reference value: 5.3); type: functional
[16] = tested on: RG2; test: Synergistic cytotoxicity against rat RG2 cells assessed as synergistic effect index at 89.9 uM after 48 hrs in presence of 206 uM TMZ by MTT assay; type: functional
[17] = Effect of MDR1 expression in rat RG2 cells at 112.4 uM after 48 hrs by Western blot analysis; type: functional
[18] = tested on: RG2; test: Induction of cell cycle arrest in rat RG2 cells assessed as CyclinB1 expression at 112.4 uM after 48 hrs by Western blot analysis (reference value: 1); type: functional
[19] = tested on: DBTRG-05MG; test: Synergistic cytotoxicity against human DBTRG-05MG cells assessed as synergistic effect index at 112.4 uM after 48 hrs in presence of 515.1 uM TMZ by MTT assay; type: functional
[20] = tested on: DBTRG-05MG; test: Induction of apoptosis in human DBTRG-05MG cells assessed as phosphorylated caspace-9 expression at 112.4 uM after 48 hrs by Western blot analysis (reference value: 1); type: functional
[21] = tested on: RG2; test: Synergistic cytotoxicity against rat RG2 cells assessed as synergistic effect index at 112.4 uM after 48 hrs in presence of 206 uM TMZ by MTT assay; type: functional
[22] = tested on: DBTRG-05MG; test: Inhibition of TMZ-induced drug resistance in human DBTRG-05MG cells assessed as reduction in MGMT protein expression at 112.4 uM after 48 hrs by Immunohistochemistry method; type: functional, cell-based
[23] = tested on: RG2; test: Synergistic cytotoxicity against rat RG2 cells assessed as combination index at 112.4 uM after 48 hrs in presence of 206 uM TMZ by MTT assay; type: functional
[24] = tested on: RG2; test: Induction of cell cycle arrest in rat RG2 cells assessed as accumulation at G0/G1 phase at 112.4 uM after 12 hrs by propidium iodide staining based flow cytometric analysis (reference value: 57.81 +/- 1.9%); type: functional
[25] = tested on: DBTRG-05MG; test: Induction of cell cycle arrest in human DBTRG-05MG cells assessed as accumulation at S phase at 206 uM after 12 hrs by propidium iodide staining based flow cytometric analysis (reference value: 22.76 +/- 1.56%); type: functional
[26] = tested on: DBTRG-05MG; test: Induction of apoptosis in human DBTRG-05MG cells assessed as phosphorylated PARP expression at 206 uM after 48 hrs by Western blot analysis (reference value: 1); type: functional
[27] = tested on: RG2; test: Induction of apoptosis in rat RG2 cells assessed as increase in DNA fragmentation at 206 uM after 48 hrs by TUNEL assay; type: functional, cell-based
[28] = tested on: RG2; test: Induction of cell cycle arrest in rat RG2 cells assessed as accumulation at S phase at 206 uM after 6 hrs by propidium iodide staining based flow cytometric analysis (reference value: 20.15 +/- 2.44%); type: functional
[29] = tested on: RG2; test: Induction of cell cycle arrest in rat RG2 cells assessed as accumulation at G2/M phase at 206 uM after 48 hrs by propidium iodide staining based flow cytometric analysis (reference value: 20.04 +/- 0.55%); type: functional
[30] = tested on: DBTRG-05MG; test: Induction of apoptosis in human DBTRG-05MG cells assessed as cleaved caspace-3 expression at 206 uM after 48 hrs by Western blot analysis (reference value: 1); type: functional
[31] = tested on: DBTRG-05MG; test: Induction of cell cycle arrest in human DBTRG-05MG cells assessed as accumulation at G0/G1 phase at 206 uM after 12 hrs by propidium iodide staining based flow cytometric analysis (reference value: 47.16 +/- 1.55%); type: functional
[32] = Effect on AKT expression in rat RG2 cells at 206 uM after 48 hrs by Western blot analysis (reference value: 1); type: functional
[33] = tested on: DBTRG-05MG; test: Induction of cell cycle arrest in human DBTRG-05MG cells assessed as CyclinA expression at 206 uM after 48 hrs by Western blot analysis (reference value: 1); type: functional
[34] = tested on: DBTRG-05MG; test: Induction of apoptosis in human DBTRG-05MG cells assessed as increase in DNA fragmentation at 206 uM after 48 hrs by TUNEL assay; type: functional, cell-based

fold change (FC) [12]: 0.5
Structure (SMILES): C[C@@H]1CC[C@H]2C(C)(C)[C@H]3C[C@@]12CC[C@@]3(C)O [CEDROL]
CI [1]: 0.81 | fold change (FC) [2]: 1 | fold change (FC) [3]: 0.7 | fold change (FC) [4]: 1.4 | fold change (FC) [5]: 0.7 | Activity [6]: 48.93% | Activity [7]: 54.65% | CI [8]: 0.8 | CI [9]: 1.13 | fold change (FC) [10]: 1.6 | Activity [11]: Non-Toxic | Activity_index [13]: 0.77 | Activity_index [14]: 0.68 | fold change (FC) [15]: 2 | Activity_index [16]: 0.69 | fold change (FC) [17]: 2.1 | fold change (FC) [18]: 0.5 | Activity_index [19]: 0.85 | fold change (FC) [20]: 0.8 | Activity_index [21]: 0.87 | inhibition [22]: Active | CI [23]: 0.79 | Activity [24]: 64.98%

Structure (SMILES): Cn1nnc2c(C(N)=O)ncn2c1=O [TEMOZOLOMIDE]
Activity [25]: 22.29% | fold change (FC) [26]: 0.4 | Activity [27]: Active | Activity [28]: 24.46% | Activity [29]: 54.71% | fold change (FC) [30]: 3.3 | Activity [31]: 42.28% | fold change (FC) [32]: 0.6 | fold change (FC) [33]: 1.9 | Activity [34]: Active
